Source: US10081647B2, “Phosphate substituted quinolizine derivatives useful as HIV integrase inhibitors” (Merck Sharp & Dohme Corp., priority 2015, dated 2018)
Like-named read-outs stand apart in the source and are kept apart here.

Test system: HIV-1 (NL4-3 strain)
Experiment: Assay for inhibition of HIV replication (MT4-gag-GFP reporter cell line, kinetic assay)
Type: cell-based
Settings: IP from 4-parameter dose response curve
Method: This assay is useful for assessing the ability of a compound of the present inventiongin to inhibit HIV replication. The assay is a kinetic assay that employs a reporter cell line (MT4-gag-GFP) to quantify the number of new cells infected in each round of replication.
MT4-GFP cells (250,000 cells/ml) are bulk-infected with HIV-1 (NL4-3 strain) at low multiplicity of infection (MOI) in RPMI+10% FBS for 24 hours. Cells are then washed once in RPMI+10% FBS and resuspended in RPMI+0% or 10% or 100% normal human serum (NHS). Test compounds are serial-diluted in DMSO using an ECHO liquid handler. The infected MT4-GFP cells are added to a 384-well poly-D-lysine coated black plate with clear bottom in which the diluted test compounds are placed. The cells are seeded at 8,000 cells per well and the final DMSO concentration is adjusted to 0.4%. The infected cells (Green GFP cells) are then quantified at both 24 and 48 hours post incubation using Acumen eX3. Viral reproductive ratio (R0) is determined using the number of infected cells at 48 hours divided by the number of infected cells at 24 hours. Percent viral growth inhibition is calculated by [1−(R−Rtripledrug)/(RDMSO−Rtripledrug)]*100. Compound potency IP or IC50 can be determined using a 4-parameter dose response curve analysis.

[1] = infected MT4-GFP cells in 100% normal human serum, read-out: WILD TYPE CELL ASSAY Viking IP (100% NHS)
[2] = infected MT4-GFP cells in RPMI + 0% normal human serum, read-out: WILD TYPE CELL ASSAY Viking IP (0% NHS)
[3] = Human immunodeficiency virus 1, NL43, infected MT4-GFP cells in RPMI + 0% normal human serum, read-out: WILD TYPE CELL ASSAY Viking IP (0% NHS)

For COCCC1(C)C(=O)c2c(O)c(=O)c(C(=O)NCc3ccc(F)cc3F)cn2CC1OCCP(=O)(O)O (centres unmarked) [Compound 84], the IC50 [1] was 2930 nM and the IC50 [2] was 492 nM.

For COCCC1(C)C(=O)c2c(O)c(=O)c(C(=O)NCc3ccc(F)cc3F)cn2CC1OCCP(=O)(OCOC(=O)OC(C)C)OCOC(=O)OC(C)C (centres unmarked) [Compound 85], the IC50 [1] was 7.7 nM and the IC50 [2] was 0.291 nM.

Work on COCCC1(C)C(=O)c2c(O)c(=O)c(C(=O)NCc3ccc(F)cc3F)cn2CC1OCCP(=O)(OCOC(=O)OC(C)C)OCOC(=O)OC(C)C (centres unmarked) [Compound 86] yielded an IC50 [1] of 980 nM and an IC50 [2] of 3.5 nM.

Work on COCCC1(C)C(=O)c2c(O)c(=O)c(C(=O)NCc3ccc(F)cc3F)cn2CC1OCCP(=O)(OCOC(=O)OC(C)C)OCOC(=O)OC(C)C (centres unmarked) [Compound 87] yielded an IC50 [1] of 21 nM and an IC50 [2] of 0.8 nM.

For COCCC1(C)C(=O)c2c(O)c(=O)c(C(=O)NCc3ccc(F)cc3F)cn2CC1OCCP(=O)(OCOC(=O)OC(C)C)OCOC(=O)OC(C)C (centres unmarked) [Compound 88], the IC50 [1] was 29 nM and the IC50 [2] was 0.9 nM.

For CCOP(=O)(CCCOC1Cn2cc(C(=O)NCc3ccc(F)cc3F)c(=O)c(O)c2C(=O)C1(C)CCOC)OCC (centres unmarked) [Compound 89], the IC50 [1] was 211 nM and the IC50 [2] was 15 nM.

CCOP(=O)(CCCOC1Cn2cc(C(=O)NCc3ccc(F)cc3F)c(=O)c(O)c2C(=O)C1(C)CCOC)OCC (centres unmarked) [Compound 90] showed an IC50 [1] of 123 nM and an IC50 [2] of 15 nM.

For CCOP(=O)(CCCOC1Cn2cc(C(=O)NCc3ccc(F)cc3F)c(=O)c(O)c2C(=O)C1(C)CCOC)OCC (centres unmarked) [Compound 91], the IC50 [1] was 600 nM and the IC50 [2] was 31 nM.

CCOP(=O)(CCCOC1Cn2cc(C(=O)NCc3ccc(F)cc3F)c(=O)c(O)c2C(=O)C1(C)CCOC)OCC (centres unmarked) [Compound 92] gave an IC50 [1] of 2320 nM and an IC50 [2] of 143 nM.

Compound CCOP(=O)(CCNC1Cn2cc(C(=O)NCc3ccc(F)cc3F)c(=O)c(O)c2C(=O)C1(C)C)OCC (centres unmarked) [Compound 101] has an IC50 [3] of 50 nM and an IC50 [1] of 891 nM.

CCOP(=O)(CCNC1Cn2cc(C(=O)NCc3ccc(F)cc3F)c(=O)c(O)c2C(=O)C1(C)C)OCC (centres unmarked) [Compound 102] was tested, and the IC50 [1] was 150 nM and the IC50 [2] was 25 nM.

CCOP(=O)(CCCNC1Cn2cc(C(=O)NCc3ccc(F)cc3F)c(=O)c(O)c2C(=O)C1(C)C)OCC (centres unmarked) [Compound 105] gave an IC50 [1] of 628 nM and an IC50 [2] of 15 nM.

Compound CCOP(=O)(CCCNC1Cn2cc(C(=O)NCc3ccc(F)cc3F)c(=O)c(O)c2C(=O)C1(C)C)OCC (centres unmarked) [Compound 106] has an IC50 [1] of 95 nM and an IC50 [2] of 3.6 nM.

CC1(C)C(=O)c2c(O)c(=O)c(C(=O)NCc3ccc(F)cc3F)cn2CC1NCCCP(=O)(O)O (centres unmarked) [Compound 108] showed an IC50 (Human immunodeficiency virus 1, NL43, infected MT4-GFP cells in 100% normal human serum, read-out: WILD TYPE CELL ASSAY Viking IP (100% NHS)) of 1260 nM and an IC50 [3] of 95 nM.

CC(C)OC(=O)OCOP(=O)(CCCNC1Cn2cc(C(=O)NCc3ccc(F)cc3F)c(=O)c(O)c2C(=O)C1(C)C)OCOC(=O)OC(C)C (centres unmarked) [Compound 109] showed an IC50 [1] of 3520 nM and an IC50 [2] of 38 nM.

Work on CC(C)OC(=O)OCOP(=O)(CCCNC1Cn2cc(C(=O)NCc3ccc(F)cc3F)c(=O)c(O)c2C(=O)C1(C)C)OCOC(=O)OC(C)C (centres unmarked) [Compound 110] yielded an IC50 [1] of 154 nM and an IC50 [2] of 8.8 nM.
